# Structures can show the parent of a compound that is named as a salt.
# Assays:
# M. furfur (CBS1878) = conditions: for The range of concentration of the atractylenolide compound (ppm) where the ΣFIC was less than 0.9 / The range of ratio of atractylenolide compound/octopirox (w/w) where ΣFIC was less than 0.9: in combination with octopirox, 32° C.
# Experimental: Method 1: ΣFIC Assay Against M. furfur.
# M. furfur (CBS1878) was maintained on MD agar plate (Solution A) was cultured into 20 ml of growth medium Pityrosporum Broth (PB, Solution B). They are then incubated at 32° C. for 48 hours with shaking. Then, 1 ml of the first broth culture is transferred into 9 ml of fresh PB and incubated at 32° C. for 48 hours with shaking. The final culture should contain 2 to 6×10^6 cells/ml. This is achieved by diluting using PB to 5×10^5 cells/ml.
# Octopirox® was serially diluted (2-fold) to prepare in a range of 60-1000 ppm in the growth medium. Testing atractylenolide compound (stock: 4 mg/ml) was 2-fold serially diluted in DMSO to prepare in a range of 40000-10 ppm. Binary combinations of octopirox and the testing compound were prepared in 96-well plate by mixing 10 μl of octopirox solution with 10 μl of testing compound. The solution in each well were further mixed with 180 μl of M. furfur strain suspensions in PB.
# The final cell density in the testing plate is around 5*10^4 cell/ml. The final concentration of each ingredient in ppm (parts per million) after (20-fold dilution) was as follows. Each of these concentrations was tried out to determine the FIC value for (either of) Octopirox® in combination with one of the atractylenolide compound.
# Multi-channel pipette was used to mix the compound and strain suspension. Thereafter the 96-well plates were incubated in an incubator. In accordance with the test protocols that were followed, M. furfur was incubated aerobically at 32° C. for 1 day. Thereafter 20 μl alamar blue (0.1%) was dispensed in each well and the procedure of incubation (as abovementioned) was repeated. Finally, the change in colour of the indicator was monitored to check for visible signs of microbial growth or inhibition of the growth. If the colour changed to red it indicated growth (of microbes) and blue indicated no growth or inhibition of growth.
# The MIC is defined as the absolute lowest concentration of active that provides complete microbial growth inhibition as indicated by the blue color of alamar blue under the tested condition.
# The procedure is as follows:
# The parameter can be defined as follows:
# After all the observations were recorded and tabulated, the Fractional Inhibition Concentration (FIC) was calculated.
# This parameter is defined as follows:
# ΣFIC=FIC(component1)+FIC(component2)
# In this study, we have adopted a liberal approach defining any binary mixture with ΣFIC<0.9 as showing evidence of synergistic behavior.
# The experiments were carried out over a concentration range of ingredients as below:
# M. furfur (CBS 1878) = test: Zone of inhibition (ZOI) assay; format: cell-based, Malassezia furfur; conditions: 0.1% OCT, 10 μL on 6 mm filter paper, 32° C., 2 days
# Experimental: Method 2: Zone Off Inhibition (ZOI) Assay
# Atractylodes macrocephala (AM) root water extract (purchased from Huzhou Liaoyuan, China) was prepared at concentration of 0.75%, and 1.5% in 50% water/DMSO. Octopirox (OCT) was prepared at concentration of 0.1% and 0.2% in DMSO. Prepare Malassezia growth agar plates, and then spread 200 μL M. furfur (10^6 CFU) (CBS 1878) on to the agar. Several sterile filter papers (diameter=6 mm) were placed on the agar plate. 10 μL of compound solutions were added on the filter paper. The plates were Incubate at 32° C. for 2 days. Clear growth inhibition zone was recorded.
# Synergistic antimicrobial activity:Inhibition distance for compound1+compound2combination>Inhibition distance for compound1 alone+Inhibition distance for compound2 alone
Molecule,The range of concentration of the atractylenolide compound (ppm) where the ΣFIC was less than 0.9 (M. furfur (CBS1878)),The range of ratio of atractylenolide compound/octopirox (w/w) where ΣFIC was less than 0.9 (M. furfur (CBS1878)),Inhibition distance (mm) = (Inhibition zone diameter − filter paper diameter)/2 (M. furfur (CBS 1878); 0.75% AM) [mm],Inhibition distance (mm) = (Inhibition zone diameter − filter paper diameter)/2 (M. furfur (CBS 1878); 1.5% AM) [mm],Synergistic antimicrobial activity in combination with Octopirox® (ΣFIC assay) (M. furfur (CBS1878); binary combination with Octopirox® 0-50 ppm)
"C=C1CCC[C@]2(C)C[C@@H]3OC(=O)C(C)=C3C[C@@H]12 [Atractylenolide II, atractylenolide II]",31.25-1000 ppm,5-2560 w/w,–,–,–
"Cc1cc(CC(C)CC(C)(C)C)n(O)c(=O)c1 (stereo not shown) [OCT, 1-hydroxy-4-methyl-6-(2,4,4-trimethylpentyl)-2(1H) pyridinone monoethanolamine salt]",–,–,2.7,2.7,–
"zinc pyrithione [ZPTO, reference compound]",–,–,–,–,cannot interact synergistically
"C=C1CCC[C@]2(C)C=C3OC(=O)C(C)=C3C[C@@H]12 [Atractylenolide I, atractylenolide I]",31.25-500 ppm,5-1280 w/w,–,–,–
